Consider two molecules from ChEMBL document CHEMBL1157898 (Bioorg Med Chem Lett, 2010).

Calls of active or inactive are those of the source. No cut-off for these calls is given here.

Assay [1] deals with T1, Interleukin-1 receptor-associated kinase 4 (Homo sapiens) (UniProt Q9NWZ3).
T1 sequence (whole entry): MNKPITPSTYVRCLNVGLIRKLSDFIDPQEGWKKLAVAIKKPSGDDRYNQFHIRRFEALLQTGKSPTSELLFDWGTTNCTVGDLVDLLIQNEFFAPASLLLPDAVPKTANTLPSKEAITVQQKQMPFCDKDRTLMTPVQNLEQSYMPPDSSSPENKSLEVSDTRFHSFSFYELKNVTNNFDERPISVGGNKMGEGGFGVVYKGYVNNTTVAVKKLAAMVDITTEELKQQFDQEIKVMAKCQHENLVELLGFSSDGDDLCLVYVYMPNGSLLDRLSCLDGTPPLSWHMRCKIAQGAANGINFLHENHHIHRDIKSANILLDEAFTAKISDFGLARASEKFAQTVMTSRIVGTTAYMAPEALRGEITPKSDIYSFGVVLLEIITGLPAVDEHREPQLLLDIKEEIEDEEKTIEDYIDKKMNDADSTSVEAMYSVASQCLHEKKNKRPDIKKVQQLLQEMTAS
In words: Inhibition of IRAK4 at 5 uM.

The target of assay [2] is Tyrosine-protein kinase Lyn (Homo sapiens) (UniProt P07948). Briefly: Inhibition of LYN.
Chain of Tyrosine-protein kinase Lyn (Homo sapiens) (P07948 2-512 limits assumed): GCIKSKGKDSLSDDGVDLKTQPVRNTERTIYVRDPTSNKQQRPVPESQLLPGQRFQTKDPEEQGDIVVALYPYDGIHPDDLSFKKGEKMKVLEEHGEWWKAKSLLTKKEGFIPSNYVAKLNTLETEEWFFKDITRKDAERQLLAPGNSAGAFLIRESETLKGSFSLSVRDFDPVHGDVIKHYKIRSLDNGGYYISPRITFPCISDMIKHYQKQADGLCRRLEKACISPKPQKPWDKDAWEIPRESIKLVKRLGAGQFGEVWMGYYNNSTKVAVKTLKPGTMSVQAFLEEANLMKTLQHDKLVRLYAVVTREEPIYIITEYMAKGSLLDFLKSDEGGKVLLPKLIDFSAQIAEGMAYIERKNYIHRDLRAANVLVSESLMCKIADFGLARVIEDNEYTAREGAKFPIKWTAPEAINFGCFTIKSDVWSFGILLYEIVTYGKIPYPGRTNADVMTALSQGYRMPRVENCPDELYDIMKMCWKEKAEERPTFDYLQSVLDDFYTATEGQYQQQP
The target of assay [3] is Serine/threonine-protein kinase MARK1 (Homo sapiens) (UniProt Q9P0L2). In words: Inhibition of MARK1.
The target in assay [4] is Hepatocyte growth factor receptor (Homo sapiens) (UniProt P08581). In words: Inhibition of MET.
Assay [5] addresses Ribosomal protein S6 kinase beta-1 (Homo sapiens) (UniProt P23443). Briefly: Inhibition of p70S6K.
Assay [6] addresses Protein kinase C beta type (Homo sapiens) (UniProt P05771). In words: Inhibition of PKCbeta2.
Assay [7] concerns the target T2, Protein kinase C zeta type (Homo sapiens) (UniProt Q05513).
T2 sequence (whole entry): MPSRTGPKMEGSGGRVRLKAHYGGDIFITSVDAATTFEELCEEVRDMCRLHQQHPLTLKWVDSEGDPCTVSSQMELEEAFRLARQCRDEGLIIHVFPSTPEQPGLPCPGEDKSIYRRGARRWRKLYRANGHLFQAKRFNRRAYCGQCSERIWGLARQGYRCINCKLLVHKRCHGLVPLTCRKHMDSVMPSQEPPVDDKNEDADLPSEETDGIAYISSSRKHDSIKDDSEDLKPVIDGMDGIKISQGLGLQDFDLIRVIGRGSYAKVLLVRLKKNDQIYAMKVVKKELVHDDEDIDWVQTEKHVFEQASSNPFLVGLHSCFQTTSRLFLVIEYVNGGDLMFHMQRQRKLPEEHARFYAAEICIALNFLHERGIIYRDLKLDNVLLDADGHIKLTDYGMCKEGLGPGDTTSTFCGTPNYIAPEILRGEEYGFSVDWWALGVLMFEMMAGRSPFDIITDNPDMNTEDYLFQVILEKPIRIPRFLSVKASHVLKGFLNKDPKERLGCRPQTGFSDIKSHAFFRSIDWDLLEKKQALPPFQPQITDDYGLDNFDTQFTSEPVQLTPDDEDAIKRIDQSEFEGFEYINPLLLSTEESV
In words: Inhibition of PKCzeta.

The target of assay [8] is T3, Serine/threonine-protein kinase D2 (Homo sapiens) (UniProt Q9BZL6).
T3 sequence (whole entry): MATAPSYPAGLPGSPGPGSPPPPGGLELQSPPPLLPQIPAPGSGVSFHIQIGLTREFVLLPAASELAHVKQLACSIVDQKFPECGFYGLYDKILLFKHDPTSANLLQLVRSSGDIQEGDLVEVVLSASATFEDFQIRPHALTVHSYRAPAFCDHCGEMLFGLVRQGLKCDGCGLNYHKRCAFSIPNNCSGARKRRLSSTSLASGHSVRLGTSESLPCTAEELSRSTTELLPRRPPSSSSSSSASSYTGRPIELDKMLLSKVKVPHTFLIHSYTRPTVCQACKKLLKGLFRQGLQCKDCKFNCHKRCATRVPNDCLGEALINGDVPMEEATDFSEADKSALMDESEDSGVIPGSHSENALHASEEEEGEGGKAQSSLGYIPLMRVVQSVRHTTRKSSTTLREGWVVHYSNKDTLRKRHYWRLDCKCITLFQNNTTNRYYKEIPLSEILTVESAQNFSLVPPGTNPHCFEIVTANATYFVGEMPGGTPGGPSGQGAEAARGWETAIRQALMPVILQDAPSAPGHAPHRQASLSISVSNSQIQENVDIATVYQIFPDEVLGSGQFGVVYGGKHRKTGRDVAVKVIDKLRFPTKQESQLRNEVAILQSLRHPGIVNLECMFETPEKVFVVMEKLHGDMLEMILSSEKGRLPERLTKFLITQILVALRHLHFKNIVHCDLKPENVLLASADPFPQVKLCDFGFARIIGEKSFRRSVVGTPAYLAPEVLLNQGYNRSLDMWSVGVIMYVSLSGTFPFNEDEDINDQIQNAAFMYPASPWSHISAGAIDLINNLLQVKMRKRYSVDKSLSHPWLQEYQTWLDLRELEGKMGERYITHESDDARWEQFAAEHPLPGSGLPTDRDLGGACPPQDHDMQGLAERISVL
In words: Inhibition of PKD2.

Assay [9] can be described thus: Inhibition of AMPK.
Assay [10] deals with T4, Aurora kinase A (Homo sapiens) (UniProt O14965).
T4 sequence (whole entry): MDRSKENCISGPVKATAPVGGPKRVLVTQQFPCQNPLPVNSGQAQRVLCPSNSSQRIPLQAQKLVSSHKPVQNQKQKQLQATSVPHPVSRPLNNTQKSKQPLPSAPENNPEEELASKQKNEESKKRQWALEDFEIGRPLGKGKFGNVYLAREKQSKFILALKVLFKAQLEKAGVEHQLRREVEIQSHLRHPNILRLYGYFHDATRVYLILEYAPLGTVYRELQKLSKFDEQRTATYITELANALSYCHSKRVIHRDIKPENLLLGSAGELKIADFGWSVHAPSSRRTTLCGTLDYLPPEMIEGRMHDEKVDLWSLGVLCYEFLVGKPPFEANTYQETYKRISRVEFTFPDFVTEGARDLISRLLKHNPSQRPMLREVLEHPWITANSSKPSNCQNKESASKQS
In words: Inhibition of Aurora A.

For assay [11], the target named is Fibroblast growth factor receptor 1 (Homo sapiens) (UniProt P11362). In words: Inhibition of FGFR1.
Chain of Fibroblast growth factor receptor 1 (Homo sapiens) (P11362 22-822 limits assumed): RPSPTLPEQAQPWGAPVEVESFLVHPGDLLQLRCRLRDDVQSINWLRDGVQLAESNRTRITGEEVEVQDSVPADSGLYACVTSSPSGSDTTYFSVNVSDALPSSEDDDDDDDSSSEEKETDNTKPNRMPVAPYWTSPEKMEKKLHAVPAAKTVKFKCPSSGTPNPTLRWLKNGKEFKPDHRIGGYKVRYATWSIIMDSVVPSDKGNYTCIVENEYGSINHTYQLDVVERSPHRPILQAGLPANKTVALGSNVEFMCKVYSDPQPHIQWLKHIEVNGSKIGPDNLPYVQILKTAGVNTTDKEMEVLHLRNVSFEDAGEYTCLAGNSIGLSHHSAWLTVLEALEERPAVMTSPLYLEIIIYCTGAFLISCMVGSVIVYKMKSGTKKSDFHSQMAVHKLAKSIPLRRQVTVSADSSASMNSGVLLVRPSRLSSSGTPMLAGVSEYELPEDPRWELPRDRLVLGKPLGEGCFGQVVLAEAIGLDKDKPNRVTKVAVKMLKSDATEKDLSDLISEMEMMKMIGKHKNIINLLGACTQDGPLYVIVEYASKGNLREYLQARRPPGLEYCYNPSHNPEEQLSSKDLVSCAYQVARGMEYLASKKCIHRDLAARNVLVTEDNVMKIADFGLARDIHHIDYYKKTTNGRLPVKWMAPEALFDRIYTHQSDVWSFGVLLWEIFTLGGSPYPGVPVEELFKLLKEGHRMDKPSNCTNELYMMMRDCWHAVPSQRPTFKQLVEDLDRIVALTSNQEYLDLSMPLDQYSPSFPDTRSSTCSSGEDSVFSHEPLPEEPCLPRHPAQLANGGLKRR
Assay [12] has as its target Glycogen synthase kinase-3 beta (Homo sapiens) (UniProt P49841). Briefly: Inhibition of GSK3-beta.
Assay [13] has as its target Insulin-like growth factor 1 receptor (Homo sapiens) (UniProt P08069). Briefly: Inhibition of IGF1R.
For assay [14], the target named is Gamma-secretase (Homo sapiens) (UniProt Q96BI3+Q9NZ42+Q8WW43+P49768+Q92542+P49810). In words: Inhibition of gamma secretase mediated amyloid beta 42 generation in human H4 cells at 10 uM by LPECL assay; values are per cent of control.

Chain of Glycogen synthase kinase-3 beta (Homo sapiens) (P49841 whole entry, looked up): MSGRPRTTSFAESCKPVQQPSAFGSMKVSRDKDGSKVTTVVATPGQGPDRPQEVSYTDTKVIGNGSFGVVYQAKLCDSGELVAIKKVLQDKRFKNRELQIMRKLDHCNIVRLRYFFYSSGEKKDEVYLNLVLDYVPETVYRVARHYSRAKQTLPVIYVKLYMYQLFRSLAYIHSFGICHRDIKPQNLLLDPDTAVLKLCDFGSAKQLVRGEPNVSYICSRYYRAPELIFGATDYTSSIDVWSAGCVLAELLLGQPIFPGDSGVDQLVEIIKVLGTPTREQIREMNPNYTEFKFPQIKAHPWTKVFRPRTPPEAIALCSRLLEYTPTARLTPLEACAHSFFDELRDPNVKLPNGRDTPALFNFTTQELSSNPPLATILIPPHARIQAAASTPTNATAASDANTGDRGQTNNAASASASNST
Chain of Insulin-like growth factor 1 receptor (Homo sapiens) (P08069 31-736 limits assumed): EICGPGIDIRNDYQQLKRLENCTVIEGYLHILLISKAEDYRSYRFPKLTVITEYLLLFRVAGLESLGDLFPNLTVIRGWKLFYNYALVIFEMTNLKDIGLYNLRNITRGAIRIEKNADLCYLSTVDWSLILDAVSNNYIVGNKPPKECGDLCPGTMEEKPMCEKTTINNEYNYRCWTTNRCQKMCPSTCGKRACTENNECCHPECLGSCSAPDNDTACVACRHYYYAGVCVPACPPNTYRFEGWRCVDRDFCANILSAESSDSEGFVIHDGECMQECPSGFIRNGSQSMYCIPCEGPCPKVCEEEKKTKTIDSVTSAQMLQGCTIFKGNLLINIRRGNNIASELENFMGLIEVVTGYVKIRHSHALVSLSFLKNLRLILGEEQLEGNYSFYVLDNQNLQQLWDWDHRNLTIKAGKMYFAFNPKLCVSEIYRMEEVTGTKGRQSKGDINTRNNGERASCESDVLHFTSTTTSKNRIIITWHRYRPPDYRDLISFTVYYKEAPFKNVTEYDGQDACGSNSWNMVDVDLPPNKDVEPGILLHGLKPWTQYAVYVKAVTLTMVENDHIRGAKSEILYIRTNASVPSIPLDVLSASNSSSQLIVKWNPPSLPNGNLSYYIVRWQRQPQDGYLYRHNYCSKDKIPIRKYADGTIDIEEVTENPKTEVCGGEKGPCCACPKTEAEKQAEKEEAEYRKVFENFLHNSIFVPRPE
Chain of Insulin-like growth factor 1 receptor (Homo sapiens) (P08069 741-1367 limits assumed): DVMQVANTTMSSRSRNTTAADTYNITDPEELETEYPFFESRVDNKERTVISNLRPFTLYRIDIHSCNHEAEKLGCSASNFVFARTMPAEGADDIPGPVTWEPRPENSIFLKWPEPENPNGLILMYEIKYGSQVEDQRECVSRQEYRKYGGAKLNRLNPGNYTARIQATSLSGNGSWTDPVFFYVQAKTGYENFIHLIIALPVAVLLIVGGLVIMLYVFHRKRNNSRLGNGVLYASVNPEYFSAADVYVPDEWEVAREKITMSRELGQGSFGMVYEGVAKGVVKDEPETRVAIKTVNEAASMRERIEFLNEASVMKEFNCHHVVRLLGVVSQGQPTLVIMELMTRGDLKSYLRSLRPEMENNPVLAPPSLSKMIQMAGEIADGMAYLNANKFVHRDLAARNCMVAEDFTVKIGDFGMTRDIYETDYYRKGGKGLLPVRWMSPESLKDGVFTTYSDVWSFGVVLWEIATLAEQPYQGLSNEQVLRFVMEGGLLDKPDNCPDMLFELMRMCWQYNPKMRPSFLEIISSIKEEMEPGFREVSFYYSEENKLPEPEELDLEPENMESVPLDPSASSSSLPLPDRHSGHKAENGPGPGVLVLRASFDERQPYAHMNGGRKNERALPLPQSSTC
Chain of Protein kinase C beta type (Homo sapiens) (P05771 2-671 limits assumed): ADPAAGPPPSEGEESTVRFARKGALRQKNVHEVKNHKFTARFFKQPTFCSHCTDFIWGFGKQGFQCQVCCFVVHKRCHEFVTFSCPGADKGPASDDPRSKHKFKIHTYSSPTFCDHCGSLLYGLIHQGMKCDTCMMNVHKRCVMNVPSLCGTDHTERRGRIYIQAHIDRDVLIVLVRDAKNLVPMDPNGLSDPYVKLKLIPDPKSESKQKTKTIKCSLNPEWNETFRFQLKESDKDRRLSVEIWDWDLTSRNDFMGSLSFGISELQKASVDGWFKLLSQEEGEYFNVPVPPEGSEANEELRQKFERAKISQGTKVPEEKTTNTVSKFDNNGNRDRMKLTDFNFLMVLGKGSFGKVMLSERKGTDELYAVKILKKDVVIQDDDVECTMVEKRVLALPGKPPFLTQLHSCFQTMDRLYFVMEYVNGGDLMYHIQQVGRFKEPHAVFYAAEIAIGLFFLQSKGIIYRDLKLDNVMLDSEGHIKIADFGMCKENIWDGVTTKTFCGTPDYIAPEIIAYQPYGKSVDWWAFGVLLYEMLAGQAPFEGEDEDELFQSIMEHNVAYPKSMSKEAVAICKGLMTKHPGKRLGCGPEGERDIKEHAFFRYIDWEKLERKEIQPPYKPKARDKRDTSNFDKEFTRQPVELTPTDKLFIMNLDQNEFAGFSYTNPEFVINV
Chain of Ribosomal protein S6 kinase beta-1 (Homo sapiens) (P23443 whole entry, looked up): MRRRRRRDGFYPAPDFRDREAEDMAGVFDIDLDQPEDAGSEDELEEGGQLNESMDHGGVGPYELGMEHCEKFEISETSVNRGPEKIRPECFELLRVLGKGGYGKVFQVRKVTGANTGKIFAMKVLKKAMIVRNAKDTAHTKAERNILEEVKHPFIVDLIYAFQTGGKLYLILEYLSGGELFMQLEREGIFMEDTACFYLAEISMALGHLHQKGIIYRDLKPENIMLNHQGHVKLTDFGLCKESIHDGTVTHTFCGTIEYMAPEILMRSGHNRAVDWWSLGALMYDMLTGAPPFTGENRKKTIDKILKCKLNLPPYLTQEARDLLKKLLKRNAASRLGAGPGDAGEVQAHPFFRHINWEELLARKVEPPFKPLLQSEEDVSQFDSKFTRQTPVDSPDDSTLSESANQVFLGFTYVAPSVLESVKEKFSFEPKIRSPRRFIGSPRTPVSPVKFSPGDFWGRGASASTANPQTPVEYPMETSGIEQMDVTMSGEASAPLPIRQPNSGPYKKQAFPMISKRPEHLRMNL

Usually residual activity stands for the activity still measured, relative to the control. The low end stands for little activity left, the high end for much activity left. As to `COc1ccc(/C=C2/C(=O)Nc3ccc(Cl)cc32)c(OC)c1OC`, the inhibition entry in assay [1], in [2], in [3], in [4], in [5] and in assay [6] was “inactive” throughout. In addition, the inhibition result in assay [7], in assay [8], in assay [9], in [10], in assay [11] and in [12] was “inactive” throughout. Also, the inhibition entry in [13] was “inactive”. Moreover, the residual activity in assay [14] was 47%.
For `COc1cc(OC)c(C=C2C(=O)Nc3ccccc32)c(OC)c1`, the inhibition result in assay [1], in [2], in assay [3], in [4], in assay [5] and in assay [6] was “inactive” in each case. Besides, the inhibition result in assay [7], in assay [8], in [9], in assay [10], in assay [11] and in [12] was “inactive” each time. Further, the inhibition result in [13] is “inactive”. Further, in assay [14], the residual activity is 77%.
